Laboratory results from patent US10093713B2, “GIP-GLP-1 dual agonist compounds and methods” (priority 2013, dated 2018).
*1 amine or outer side, *2 acyl side, *3 side chain or, on linkers, in order; H or OH if unused. Where a SMILES comes first, the peptide text is derived from it. Side-chain parts run from the residue outwards. [ ]: non-standard residue; d: D form. The star is where a group is joined. X1 = O=C(O)CCCCCCCCCCCCCCCCCCC(=O)N1CCN(CC(=O)*)CC1; C20 diacid = O=C(O)CCCCCCCCCCCCCCCCCCC(=O)*; γGlu = O=C(O)[C@H](CCC(=O)[*:2])N[*:1]; AEEA = NCCOCCOCC(=O)O; Aib = CC(C)(N)C(=O)O

Tests used:
[1] = target: T1, human GLP-1 R (Homo sapiens, UniProt P43220); experiment: Human GLP-1 receptor (GLP-1 R) activity assay, cAMP induction (AlphaScreen) in HEK293 cells; assay type: cell-based; conditions: Table 3; most comprehensive data; read-out: hGLP-1-R cAMP EC50 average value
T1 construct: expressed in transfected cells
In short: (§1)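 Stable HEK293 clones expressing human GIP R or GLP-1 R, seeded 1 day before; cells washed in Tyrode's buffer (10 mM HEPES, pH 7.4), stimulated, then lysed. cAMP measured by AlphaScreen bead competition (1 h, room temperature, dark). EC50 = concentration giving half-maximal cAMP elevation, from curves of absolute cAMP (nM) vs log concentration.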

[2] = target: T2, human GIP R (Homo sapiens, UniProt P48546); experiment: Human GIP receptor (GIP R) activity assay, cAMP induction (AlphaScreen) in HEK293 cells; assay type: cell-based; conditions: Table 3; most comprehensive data; read-out: hGIP-R cAMP EC50 average value
T2 construct: expressed in transfected cells
T2 sequence (P48546 22-466): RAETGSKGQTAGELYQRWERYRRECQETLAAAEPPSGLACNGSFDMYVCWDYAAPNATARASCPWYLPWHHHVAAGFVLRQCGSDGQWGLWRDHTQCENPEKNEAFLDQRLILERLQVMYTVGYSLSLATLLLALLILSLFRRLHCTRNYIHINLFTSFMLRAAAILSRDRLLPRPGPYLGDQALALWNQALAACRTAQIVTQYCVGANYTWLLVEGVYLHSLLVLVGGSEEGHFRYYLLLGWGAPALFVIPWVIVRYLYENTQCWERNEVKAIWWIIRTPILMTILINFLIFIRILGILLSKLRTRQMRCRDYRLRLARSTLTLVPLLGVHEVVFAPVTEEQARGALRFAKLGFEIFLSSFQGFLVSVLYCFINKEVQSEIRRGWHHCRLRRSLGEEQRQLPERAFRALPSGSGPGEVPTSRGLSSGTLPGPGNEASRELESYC
In short: as §1

T1 sequence (P43220 24-463): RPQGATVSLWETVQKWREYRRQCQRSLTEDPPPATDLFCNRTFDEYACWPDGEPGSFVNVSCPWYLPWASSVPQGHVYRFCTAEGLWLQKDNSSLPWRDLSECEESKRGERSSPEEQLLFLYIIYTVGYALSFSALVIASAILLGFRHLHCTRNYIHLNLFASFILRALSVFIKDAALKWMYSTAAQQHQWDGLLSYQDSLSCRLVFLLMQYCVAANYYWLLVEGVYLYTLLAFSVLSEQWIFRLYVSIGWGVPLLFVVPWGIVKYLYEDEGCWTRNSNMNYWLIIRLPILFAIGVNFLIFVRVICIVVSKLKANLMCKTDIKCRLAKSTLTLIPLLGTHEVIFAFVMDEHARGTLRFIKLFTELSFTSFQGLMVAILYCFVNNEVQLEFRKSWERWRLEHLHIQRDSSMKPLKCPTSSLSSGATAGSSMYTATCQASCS

SMILES | EC50 [1] [nM] | EC50 [2] [nM]
CC[C@H](C)[C@H](NC(=O)[C@H](CO)NC(=O)[C@H](Cc1ccc(O)cc1)NC(=O)[C@H](CC(=O)O)NC(=O)[C@H](CO)NC(=O)[C@@H](NC(=O)[C@H](Cc1ccccc1)NC(=O)[C@@H](NC(=O)CNC(=O)[C@H](CCC(=O)O)NC(=O)C(C)(C)NC(=O)[C@@H](N)Cc1ccc(O)cc1)[C@@H](C)O)[C@@H](C)O)C(=O)N[C@@H](C)C(=O)N[C@@H](CC(C)C)C(=O)N[C@@H](CC(=O)O)C(=O)N[C@@H](CCCCN)C(=O)N[C@@H](CCCCNC(=O)COCCOCCNC(=O)COCCOCCNC(=O)CN1CCN(C(=O)CCCCCCCCCCCCCCCCCCC(=O)O)CC1)C(=O)N[C@@H](C)C(=O)N[C@@H](CCC(N)=O)C(=O)N[C@@H](CCCCN)C(=O)N[C@@H](CCC(=O)O)C(=O)N[C@@H](Cc1ccccc1)C(=O)N[C@H](C(=O)N[C@@H](CCC(=O)O)C(=O)N[C@@H](Cc1c[nH]c2ccccc12)C(=O)N[C@@H](CC(C)C)C(=O)N[C@@H](CC(C)C)C(=O)N[C@@H](C)C(=O)N[C@@H](C)C(=O)NCC(=O)N1CCC[C@H]1C(=O)N[C@@H](CO)C(=O)N[C@@H](CO)C(=O)NCC(=O)N[C@@H](C)C(=O)N1CCC[C@H]1C(=O)N1CCC[C@H]1C(=O)N1CCC[C@H]1C(=O)N[C@@H](CO)C(N)=O)C(C)C [Compound 53] (H-Y[Aib]EGTFTSDYSIALDKK([AEEA-AEEA-X1])AQKEFVEWLLAAGPSSGAPPPS-NH2) | 0.014 | 0.006
CC[C@H](C)[C@H](NC(=O)[C@H](CO)NC(=O)[C@H](Cc1ccc(O)cc1)NC(=O)[C@H](CC(=O)O)NC(=O)[C@H](CO)NC(=O)[C@@H](NC(=O)[C@H](Cc1ccccc1)NC(=O)[C@@H](NC(=O)CNC(=O)[C@H](CCC(=O)O)NC(=O)C(C)(C)NC(=O)[C@@H](N)Cc1ccc(O)cc1)[C@@H](C)O)[C@@H](C)O)C(=O)N[C@@H](Cc1ccc(O)cc1)C(=O)N[C@@H](CC(C)C)C(=O)N[C@@H](CC(=O)O)C(=O)N[C@@H](CCCCN)C(=O)N[C@@H](CCCCNC(=O)COCCOCCNC(=O)COCCOCCNC(=O)CC[C@H](NC(=O)CCCCCCCCCCCCCCCCCCC(=O)O)C(=O)O)C(=O)N[C@@H](C)C(=O)N[C@@H](CCC(N)=O)C(=O)N[C@@H](CCCNC(=N)N)C(=O)N[C@@H](C)C(=O)N[C@@H](Cc1ccccc1)C(=O)N[C@H](C(=O)N[C@@H](CCC(=O)O)C(=O)N[C@@H](Cc1c[nH]c2ccccc12)C(=O)N[C@@H](CC(C)C)C(=O)N[C@@H](CC(C)C)C(=O)N[C@@H](C)C(=O)N[C@@H](CCC(=O)O)C(=O)NCC(=O)N1CCC[C@H]1C(=O)N[C@@H](CO)C(=O)N[C@@H](CO)C(=O)NCC(=O)N[C@@H](C)C(=O)N1CCC[C@H]1C(=O)N1CCC[C@H]1C(=O)N1CCC[C@H]1C(=O)N[C@@H](CO)C(N)=O)C(C)C [Compound 54] (H-Y[Aib]EGTFTSDYSIYLDKK([AEEA-AEEA-γGlu-C20 diacid])AQRAFVEWLLAEGPSSGAPPPS-NH2) | 0.012 | 0.016
CC[C@H](C)[C@H](NC(=O)[C@H](CO)NC(=O)[C@H](Cc1ccc(O)cc1)NC(=O)[C@H](CC(=O)O)NC(=O)[C@H](CO)NC(=O)[C@@H](NC(=O)[C@H](Cc1ccccc1)NC(=O)[C@@H](NC(=O)CNC(=O)[C@H](CCC(=O)O)NC(=O)C(C)(C)NC(=O)[C@@H](N)Cc1ccc(O)cc1)[C@@H](C)O)[C@@H](C)O)C(=O)N[C@@H](C)C(=O)N[C@@H](CC(C)C)C(=O)N[C@@H](CC(=O)O)C(=O)N[C@@H](CCCCN)C(=O)N[C@@H](CCCCNC(=O)COCCOCCNC(=O)COCCOCCNC(=O)CC[C@H](NC(=O)CCCCCCCCCCCCCCCCCCC(=O)O)C(=O)O)C(=O)N[C@@H](C)C(=O)N[C@@H](CCC(N)=O)C(=O)N[C@@H](CCCNC(=N)N)C(=O)N[C@@H](C)C(=O)N[C@@H](Cc1ccccc1)C(=O)N[C@H](C(=O)N[C@@H](CCC(=O)O)C(=O)N[C@@H](Cc1c[nH]c2ccccc12)C(=O)N[C@@H](CC(C)C)C(=O)N[C@@H](CC(C)C)C(=O)N[C@@H](C)C(=O)N[C@@H](CCC(=O)O)C(=O)NCC(=O)N1CCC[C@H]1C(=O)N[C@@H](CO)C(=O)N[C@@H](CO)C(=O)NCC(=O)N[C@@H](C)C(=O)N1CCC[C@H]1C(=O)N1CCC[C@H]1C(=O)N1CCC[C@H]1C(=O)N[C@@H](CO)C(N)=O)C(C)C [Compound 55] (H-Y[Aib]EGTFTSDYSIALDKK([AEEA-AEEA-γGlu-C20 diacid])AQRAFVEWLLAEGPSSGAPPPS-NH2) | 0.013 | 0.016
CC[C@H](C)[C@H](NC(=O)[C@H](CO)NC(=O)[C@H](Cc1ccc(O)cc1)NC(=O)[C@H](CC(=O)O)NC(=O)[C@H](CO)NC(=O)[C@@H](NC(=O)[C@H](Cc1ccccc1)NC(=O)[C@@H](NC(=O)CNC(=O)[C@H](CCC(=O)O)NC(=O)C(C)(C)NC(=O)[C@@H](N)Cc1ccc(O)cc1)[C@@H](C)O)[C@@H](C)O)C(=O)N[C@@H](C)C(=O)N[C@@H](CC(C)C)C(=O)N[C@@H](CC(=O)O)C(=O)N[C@@H](CCCCN)C(=O)N[C@@H](CCCCNC(=O)COCCOCCNC(=O)COCCOCCNC(=O)CC[C@H](NC(=O)CCCCCCCCCCCCCCCCCCC(=O)O)C(=O)O)C(=O)N[C@@H](C)C(=O)N[C@@H](CCC(N)=O)C(=O)N[C@@H](CCCNC(=N)N)C(=O)N[C@@H](C)C(=O)N[C@@H](Cc1ccccc1)C(=O)N[C@H](C(=O)N[C@@H](CCC(=O)O)C(=O)N[C@@H](Cc1c[nH]c2ccccc12)C(=O)N[C@@H](CC(C)C)C(=O)N[C@@H](CC(C)C)C(=O)N[C@@H](C)C(=O)N[C@@H](CCC(=O)O)C(=O)N1CCC[C@H]1C(=O)N[C@@H](CO)C(=O)N[C@@H](CO)C(=O)NCC(=O)N[C@@H](C)C(=O)N1CCC[C@H]1C(=O)N1CCC[C@H]1C(=O)N1CCC[C@H]1C(=O)N[C@@H](CO)C(N)=O)C(C)C [Compound 56] (H-Y[Aib]EGTFTSDYSIALDKK([AEEA-AEEA-γGlu-C20 diacid])AQRAFVEWLLAEPSSGAPPPS-NH2) | 0.033 | 0.025
